# Test results published in ChEMBL document CHEMBL1201862, “PubChem BioAssay data set” (2004).
# “And” between values parts separate entries of the source, which are not always exact repeats. Identical values can stand only once. The source made the active and inactive calls.
# Columns and labels:
# Cytochrome P450 2C19 = Cytochrome P450 2C19 (Homo sapiens, UniProt P33261); test: Cytochrome panel assay with activity outcomes. Panel member name: p450-cyp2c19 Compounds with AC50 equal or less than 10 uM are considered active; assay type: functional
# Cytochrome P450 1A2 = target: T1, Cytochrome P450 1A2 (Homo sapiens, UniProt P05177);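 note: PubChem cytochrome P450 panel assay, CYP1A2 panel member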
# T1 sequence (P05177 whole entry): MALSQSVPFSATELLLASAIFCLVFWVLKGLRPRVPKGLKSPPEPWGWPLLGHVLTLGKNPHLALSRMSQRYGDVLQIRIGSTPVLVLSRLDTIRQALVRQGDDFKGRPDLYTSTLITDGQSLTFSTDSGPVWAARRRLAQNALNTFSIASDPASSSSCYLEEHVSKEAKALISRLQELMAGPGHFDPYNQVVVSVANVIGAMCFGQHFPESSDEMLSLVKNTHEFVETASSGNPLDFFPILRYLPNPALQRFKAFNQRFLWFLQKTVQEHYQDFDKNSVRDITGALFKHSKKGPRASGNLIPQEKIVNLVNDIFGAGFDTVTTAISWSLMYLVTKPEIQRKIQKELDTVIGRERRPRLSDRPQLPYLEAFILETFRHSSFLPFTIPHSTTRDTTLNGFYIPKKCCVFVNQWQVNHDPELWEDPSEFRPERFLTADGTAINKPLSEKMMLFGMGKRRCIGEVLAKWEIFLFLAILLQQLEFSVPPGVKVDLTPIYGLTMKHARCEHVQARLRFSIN
# INS1 = test: beta cell apoptosis inhibitors, cytokine rescue, dose response, luminescence, retest (AID 449756); assay type: functional, cell-based; details: Rattus norvegicus;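 note: cell death triggered by IL-1 beta plus TNF-alpha plus IFN-gamma mixture; protective hits raise ATP signal compared with cytokine alone wells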
# [1] = target: T2, Heat shock factor protein 1 (Mus musculus, UniProt P38532); test: inhibition of MG132-induced HSE-luciferase signal, confirmation, cell-based, NIH3T3, luminescence, dose retest (AID 2382); assay type: functional;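 note: NIH3T3 fibroblasts with HSF1-driven luciferase reporter stressed by proteasome inhibitor MG132; luminescence from HSF1-driven luciferase expression after 8 hours of MG132 stress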
# T2 sequence (P38532 whole entry): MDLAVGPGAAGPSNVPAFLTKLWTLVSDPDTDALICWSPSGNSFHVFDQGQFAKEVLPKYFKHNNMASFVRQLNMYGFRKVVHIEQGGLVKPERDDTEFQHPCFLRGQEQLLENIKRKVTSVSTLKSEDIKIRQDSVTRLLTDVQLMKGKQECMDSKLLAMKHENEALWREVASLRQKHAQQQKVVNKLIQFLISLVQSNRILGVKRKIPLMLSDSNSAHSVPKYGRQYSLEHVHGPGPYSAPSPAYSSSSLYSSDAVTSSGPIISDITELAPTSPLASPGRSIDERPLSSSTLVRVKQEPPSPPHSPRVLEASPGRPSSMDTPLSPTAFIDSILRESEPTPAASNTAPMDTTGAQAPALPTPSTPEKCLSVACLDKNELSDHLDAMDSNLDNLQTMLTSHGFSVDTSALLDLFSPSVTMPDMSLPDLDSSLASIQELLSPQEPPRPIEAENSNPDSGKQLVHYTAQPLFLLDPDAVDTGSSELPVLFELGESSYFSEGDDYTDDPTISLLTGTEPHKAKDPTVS
# [2] = inhibitors of intracellular T. cruzi replication, confirmation, NIH3T3 host cells, beta-gal luminescence (AID 2044); assay type: functional, cell-based;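 note: intracellular parasites grown in NIH/3T3 mouse fibroblasts as host cells; luminescent beta-galactosidase reporter signal from transgenic T. cruzi replicating inside host cells; inhibitors lower the luminescence signal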
# [3] = cytotoxicity toward NIH3T3 fibroblasts, dose response, counter-screen, cell-based, ATP luminescence, mouse fibroblasts (AID 2010); assay type: functional;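 note: cells exposed to compound for about 90 hours before reading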
# [4] = inhibitors of firefly luciferase expression or activity, dose response, H4 neuroglioma cells, luminescence (AID 1990); assay type: functional, cell-based
# [5] = tested on: Streptococcus sp. 'group A'; test: growth inhibition of control SK(-) GAS strain, dose response, counter-screen for streptokinase expression inhibitor project, luminescence, kanamycin, BacTiterGlo, confirmation (AID 1900); assay type: functional, organism-based
# [6] = Luminescence Cell-Based Dose Response HTS to Identify Inhibitors of 5'UTR Stem-Loop Driven Prion Protein mRNA Translation in H4 Neuroglioblastoma Cells. [Related pubchem assays: 1827 (Project Summary), 1813 (Primary HTS)]; assay type: functional
# [7] = inhibitors of SNCA 5'UTR-driven reporter translation, confirmation, H4 neuroglioma cells, luminescence (AID 1988); assay type: functional, cell-based
# Streptococcus = test: Group A Streptococcus viability loss, dose response, counter-screen for streptokinase expression inhibitor project, luminescence, BacTiterGlo (AID 1915); assay type: functional, organism-based;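 note: potency for reduction of bacterial viability or growth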
# Sequence of Cytochrome P450 2C19 (P33261 whole entry): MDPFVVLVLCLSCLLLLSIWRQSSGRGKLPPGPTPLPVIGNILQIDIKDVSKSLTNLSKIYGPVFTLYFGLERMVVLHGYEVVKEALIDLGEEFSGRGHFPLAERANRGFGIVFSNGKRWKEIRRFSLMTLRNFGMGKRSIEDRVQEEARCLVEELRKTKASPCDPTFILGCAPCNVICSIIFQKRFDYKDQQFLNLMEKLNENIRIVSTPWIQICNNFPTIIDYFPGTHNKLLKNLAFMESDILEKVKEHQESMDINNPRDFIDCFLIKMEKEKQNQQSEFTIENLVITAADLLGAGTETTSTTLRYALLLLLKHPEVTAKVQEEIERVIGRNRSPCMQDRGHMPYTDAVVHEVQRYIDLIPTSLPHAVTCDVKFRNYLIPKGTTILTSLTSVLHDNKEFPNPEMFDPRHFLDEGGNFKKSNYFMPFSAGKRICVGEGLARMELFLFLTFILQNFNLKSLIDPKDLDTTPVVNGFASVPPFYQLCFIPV
structure (smiles),measurement,setting,value
Cc1cc2c(cc1C)NC(c1nc3ccccc3[nH]1)C1=C(O)CC(C)(C)CC1=N2 (configuration not stated),AC50,Cytochrome P450 2C19; read-out: AC50,1.78 µM (inconclusive)
same,AC50,Cytochrome P450 1A2,25.1 µM (inconclusive)
COc1ccc(NC(=O)N2CC3(CCN(C(=O)c4c(C)noc4C)CC3)C2)cc1,AC50,Cytochrome P450 2C19; read-out: AC50,39.8 µM (inconclusive)
COc1cccc(-c2nc(-c3ccc(NC(=O)c4cccnc4)cc3)no2)c1,AC50,INS1,1.33 µM (active)
Cc1cccc(NC(=O)Cn2c(=O)n(Cc3ccco3)c(=N)c3c4c(sc32)COC(C)(C)C4)c1,EC50,[1],> 195 µM (not active)
O=C(O)c1ccc(N2C(=O)CC(N3CCN(c4cccc(C(F)(F)F)c4)CC3)C2=O)cc1 (configuration not stated),EC50,[1],> 195 µM (not active)
Cc1cc(Cl)ccc1OCCCC(=O)N1CCOCC1,EC50,[1],> 195 µM (not active)
COc1ccc(CNC(=O)c2cnc3scc(C)n3c2=O)cc1,EC50,[1],> 195 µM (not active)
COC(=O)[C@@H]1C[C@H]1[C@@H](NC(=O)c1cc(C)nn1C)c1ccccc1,AC50,Cytochrome P450 2C19; read-out: AC50,39.8 µM (inconclusive)
CC(C)(O)C#Cc1ccc(CN2CCCC(CO)(Cc3cccc(Cl)c3)C2)cc1 (configuration not stated),EC50,[2],0.455 µM (active)
same,EC50,[3],> 60 µM (not active)
Oc1[nH]c2ccc(Br)cc2c1N=NC(S)=Nc1ccc(F)cc1,EC50,[4],15.5 µM (inconclusive)
same,EC50,[5],0.074 µM (active)
same,EC50,[6],> 120 µM (not active)
same,EC50,[7],9.77 µM (active)
same,EC50,[2],1.63 µM (active)
same,EC50,[3],7.03 µM (active)
same,EC50,Streptococcus,1.39 µM (active)
CCNC(=O)CNC(=O)c1nn(Cc2ccccc2)c(=O)c2ccccc12,EC50,[1],> 195 µM (not active)
O=C1N=C2SCCN2/C1=C\c1c(Cl)cccc1Cl,AC50,Cytochrome P450 2C19; read-out: AC50,28.2 µM (inconclusive)
Cc1ccc(-n2cc(CN3CCC(O)(c4ccccn4)CC3)c(-c3ccc(F)cc3)n2)cc1,EC50,[2],3.61 µM (active)
same,EC50,[3],9.48 µM (active)
Cc1ccccc1Cn1ccc(NC(=O)c2cnn3c(C(F)(F)F)cc(-c4ccco4)nc23)n1,EC50,[1],19.1 µM (active)
COc1cc(C(=O)Nc2ccc(-c3nc4cc(C)ccc4o3)c(O)c2)cc(OC)c1OC,EC50,[5],2.35 µM (active)
same,EC50,Streptococcus,1.85 µM (active)
CC(C)CCNC(=O)C1CCCN1C(=O)NC1CCCCC1 (configuration not stated),EC50,[1],> 195 µM (not active)
N=C(N)SCCSC(=N)N,AC50,Cytochrome P450 1A2,2 µM (inconclusive)
COc1cccc(CNc2nc(SC)ncc2CO)c1,EC50,[4],13.5 µM (active)
same,EC50,[6],27.1 µM (active)
same,EC50,[7],> 120 µM (not active)
O=C(Nc1cc2ccccc2oc1=O)C1CCCCC1,AC50,Cytochrome P450 2C19; read-out: AC50,28.2 µM (inconclusive)
same,AC50,Cytochrome P450 1A2,2.51 µM (inconclusive)
Cc1cc(=O)[nH]c2ccccc12,AC50,Cytochrome P450 2C19; read-out: AC50,20 µM (inconclusive)
COc1cccc(/C=C/C(=O)OCC(=O)Nc2nnc(-c3ccccc3)o2)c1,EC50,[5],6.11 µM (active)
same,EC50,Streptococcus,11.1 µM (active)
O=C(Nc1ccccc1)c1ccc(Nc2c([N+](=O)[O-])cc([N+](=O)[O-])c3ccccc23)cc1,EC50,[2],0.622 µM (active)
same,EC50,[3],> 60 µM (not active)
O=C(Cn1cnc([N+](=O)[O-])c1)Nc1cc(Oc2ccc(Cl)cc2Cl)cc([N+](=O)[O-])c1,EC50,[2],1.11 µM (active)
same,EC50,[3],> 60 µM (not active)
COC(=O)[C@@]1(Cc2ccc(OC)cc2)[C@H]2c3cc(C(=O)N4CCCC4)n(CCc4ccccn4)c3C[C@H]2CN1C(=O)c1ccccc1,AC50,Cytochrome P450 2C19; read-out: AC50,25.1 µM (inconclusive)
CN1CCC(=C2c3ccccc3CC(=O)c3sccc32)CC1 [KETOTIFEN],AC50,Cytochrome P450 2C19,inconclusive
COc1ccc(CN(C)C(=O)c2cc(S(=O)(=O)N3CCOCC3)ccc2N2CCCC2)cc1,EC50,[1],> 195 µM (not active)
Cn1nnnc1SCc1ccccc1[N+](=O)[O-],AC50,Cytochrome P450 1A2,15.8 µM (inconclusive)
O=S(=O)(c1ccc(Cl)cc1)N1CCCCC1c1cccnc1 (configuration not stated),EC50,[2],0.838 µM (active)
same,EC50,[3],> 60 µM (not active)
CCOC(=O)c1ccc(Cl)c(NC(=O)c2ccc(-c3ccccc3)cc2)c1,AC50,Cytochrome P450 1A2,28.2 µM (inconclusive)
COC(=O)Nc1nc2cc(C(=O)c3ccc(F)cc3)ccc2[nH]1 [FLUBENDAZOLE],EC50,[4],0.323 µM (active)
same,EC50,[6],0.225 µM (active)
same,EC50,[7],< 0.1 µM (active)
C[C@@H](C(=O)NCc1ccccn1)[C@H]1C[C@]1(C)[C@H](NC(=O)OCc1ccccc1)c1ccccc1,AC50,Cytochrome P450 1A2,25.1 µM (inconclusive)
CC1(C)Oc2ccc(C#N)cc2[C@H](N2CCCC2=O)[C@H]1O [(-)-CROMAKALIM],AC50,Cytochrome P450 1A2,10 µM (inconclusive) and 20 µM (inconclusive)
CCc1ccc(C2=NN(CCC(=O)NC(C)CCc3ccccc3)C(=O)CC2)cc1 (configuration not stated),EC50,[4],> 120 µM (not active)
same,EC50,[6],23.8 µM (active)
same,EC50,[7],119 µM (active)
COc1cccc(C2C(C(=O)c3cc4ccccc4o3)=C(O)C(=O)N2c2cc(C)on2)c1 (configuration not stated),EC50,[1],> 195 µM (not active)
CCOC(=O)c1c(-c2cccs2)csc1NC(=O)CN1CCOCC1,EC50,[4],20.9 µM (active)
same,EC50,[6],80.6 µM (active)
same,EC50,[7],> 120 µM (not active)
CCOc1ccc(-n2c(=O)[nH]cc(C(=O)N3CCCc4ccccc43)c2=O)cc1,AC50,Cytochrome P450 2C19; read-out: AC50,5.01 µM (inconclusive)
Cc1ccc(OCCCCNC2CCCCC2)c(C)c1,EC50,[2],1.62 µM (active)
same,EC50,[3],> 60 µM (not active)
O=C1SCC(c2ccccc2)=NN1Cc1ccccc1,EC50,[1],> 195 µM (not active)
CNc1cc(NS(=O)(=O)c2ccc(N)cc2)nc(NC)n1,AC50,Cytochrome P450 2C19,inconclusive
C[C@@H](C(=O)NCCc1c[nH]c2ccccc12)[C@@H]1C[C@@]1(C)[C@@H](NC(=O)OCc1ccccc1)c1ccccc1,AC50,Cytochrome P450 1A2,12.6 µM (inconclusive)
OC(CNCCc1ccccc1)COc1ccc(OCC(O)CNCCc2ccccc2)cc1 (configuration not stated),EC50,[4],9.08 µM (active)
same,EC50,[6],> 120 µM (not active)
same,EC50,[7],8.27 µM (active)
CN1CCN(C(=O)/C(=C\c2cccs2)NC(=O)c2ccco2)CC1,EC50,[1],> 195 µM (not active)
O=C(Nn1c(-c2ccncc2)nc2ccccc2c1=O)c1ccc(Br)cc1,EC50,[2],0.75 µM (active)
same,EC50,[3],> 60 µM (not active)
COc1cccc(NC(=O)c2oc3ccccc3c2NC(=O)c2ccc3c(c2)OCO3)c1,AC50,Cytochrome P450 1A2,6.31 µM (inconclusive)
Clc1ccccc1CN(Cc1ccccc1)c1[nH]cnc2ncnc1-2,EC50,[5],5.85 µM (active)
same,EC50,Streptococcus,> 150 µM (not active)
Cc1ccc(C(=N)NOC(=O)CN(C)S(=O)(=O)c2ccc(C)cc2)cc1,EC50,[1],> 195 µM (not active)
Cc1ccc(Nc2nc(-c3cccnc3)cs2)cc1Cl,EC50,[2],2.13 µM (active)
same,EC50,[3],> 60 µM (not active)
CCc1ccc(CN2CCCC(C(=O)c3sccc3C)C2)o1 (configuration not stated),EC50,[2],0.159 µM (active)
same,EC50,[3],16.9 µM (active)
COc1ccc(-c2nc(CN3CCCCC3c3cccnc3)c(C)o2)c(F)c1 (configuration not stated),EC50,[2],1.45 µM (active)
same,EC50,[3],> 60 µM (inconclusive)
CCN(c1ccccc1)c1cc(NC)[n+](C)c(C)n1,AC50,Cytochrome P450 1A2,31.6 µM (inconclusive)
O=C(Nc1cccnc1)c1cccnc1,AC50,INS1,7.3 µM (active)
CCOc1ccc(C(=O)C[n+]2cccc3cc(C)ccc32)cc1,EC50,[2],4.12 µM (active)
same,EC50,[3],> 30 µM (not active)
Fc1cc(F)c2nc(Nc3nc4c(F)cccc4s3)sc2c1,AC50,INS1,4.34 µM (active)
COC(=O)c1ccc(NC(=S)N(Cc2cccnc2)Cc2ccco2)cc1,EC50,[2],0.534 µM (active)
same,EC50,[3],> 30 µM (not active)
